Where two headings read alike, the source gives them in different places.
Experiments:
HIV-1 strain 92HT599 = assay: Antiviral activity against HIV-1 strain 92HT599 in MT2 cells (p24 estimation); assay type: cell-based
Description: MT2 cells were infected with HIV-1 strain 92HT599 (10 TCID 50/30000 cells). The infected cells were plated at the concentration of ˜30,000 cells per well in 96 well plate. Test compound was added to the micro plate in defined format with the final concentration of DMSO (vehicle) is not more than 1%. Incubation was carried out in CO2 incubator for ˜96 hours for viral infection. At the end of incubation period an aliquot from each well was taken for p24 estimation. The quantitation of p24 is an index for antiviral activity of the compound. Percent inhibition was calculated with reference to control values (vehicle controls). p24 estimation was carried out using Advance biosciences kit as per the procedure detailed by supplier.
The IC50 (nM) values are set forth in below Table-1.

pNL4-3 WT = assay: Antiviral activity against pNL4-3 WT strain in MT4 cells (p24 estimation); assay type: cell-based, HIV-1; conditions: Human immunodeficiency virus 1, MT4, 96 h, read-out: pNL4-3 WT IC50
Description: (§1) MT4 cells were Transfected with HIV-1 Plasmid (pNL4-3-WT & V7A) (Cells were incubating with required number of TCID50 of HIV-1 for 1.5 h at 37° C.). After infection, the infected cells were plated at the concentration of 3×10^4 cells per well in 96 well plate. Test compound was added to the test plate in defined format with the final concentration of DMSO is not more than 1%. Incubation was carried out in CO2 incubator for 4 days for viral infection. At the end of incubation period an aliquot from each well was taken for p24 estimation. p24 estimation was carried out using Advance biosciences kit as per the procedure detailed by supplier.

pNL4-3 V7A = assay: Antiviral activity against pNL4-3 V7A strain in MT4 cells (p24 estimation); assay type: cell-based, HIV-1; conditions: Human immunodeficiency virus 1, MT4, 96 h, read-out: pNL4-3 V7A IC50
Description: as §1

[1] = Human immunodeficiency virus 1, HIV-1 strain 92HT599, MT2 cells, ~96 hours, p24, read-out: IC50

Row | Structure (SMILES) | IC50 (HIV-1 strain 92HT599; [1]) [nM] | IC50 (pNL4-3 WT) [nM] | IC50 (pNL4-3 V7A) [nM] | IC50 (HIV-1 strain 92HT599; Human immunodeficiency virus 1, MT2, 96 h) [nM]
1 | CC1([C@@H]2CC[C@]3(NC[C@H](CF)N4CCS(=O)(=O)CC4)CC[C@]4(C)[C@H](CC[C@@H]5[C@@]6(C)CC[C@H](OC(=O)[C@H]7C[C@@H](C(=O)O)C7(C)C)C(C)(C)[C@@H]6CC[C@]54C)[C@@H]23)CC1 [Example 10, (1R,3S)-3-((((1R,3aS,5aR,5bR,7aR,9S,11aR,11bR,13aR,13bR)-3a-(((R)-2-(1,1-dioxidothiomorpholino)-3-fluoropropyl)amino)-5a,5b,8,8,11a-pentamethyl-1-(1-methylcyclopropyl)icosahydro-1H-cyclopenta[a]chrysen-9-yl)oxy)carbonyl)-2,2-dimethyl cyclobutane-1-carboxylic acid] | < 10 | < 10 | 1 to 50 | 
2 | CC(C)[C@H](CN[C@]12CC[C@@H](C3(C)CC3)[C@@H]1[C@H]1CC[C@@H]3[C@@]4(C)CC[C@H](OC(=O)[C@H]5C[C@@H](C(=O)O)C5(C)C)C(C)(C)[C@@H]4CC[C@@]3(C)[C@]1(C)CC2)N1CCS(=O)(=O)CC1 [Example 3, (1R,3S)-3-((((1R,3aS,5aR,5bR,7aR,9S,11aR,11bR,13aR,13bR)-3a-(((R)-2-(1,1-dioxidothiomorpholino)-3-methylbutyl)amino)-5a,5b,8,8,11a-pentamethyl-1-(1-methylcyclopropyl)icosahydro-1H-cyclopenta[a]chrysen-9-yl)oxy)carbonyl)-2,2-dimethyl cyclobutane-1-carboxylic acid] | > 20 | > 50 | > 100 | 
3 | C=C(C)[C@@H]1CC[C@]2(NC[C@H]([C@@H](C)O)N3CCS(=O)(=O)CC3)CC[C@]3(C)[C@H](CC[C@@H]4[C@@]5(C)CC[C@H](OC(=O)[C@H]6C[C@@H](C(=O)O)C6(C)C)C(C)(C)[C@@H]5CC[C@]43C)[C@@H]12 [Example 15, (1R,3S)-3-((((1R,3aS,5aR,5bR,7aR,9S,11aR,11bR,13aR,13bR)-3a-(((2R,3R)-2-(1,1-dioxidothiomorpholino)-3-hydroxybutyl)amino)-5a,5b,8,8,11a-pentamethyl-1-(prop-1-en-2-yl)icosahydro-1H-cyclopenta[a]chrysen-9-yl)oxy)carbonyl)-2,2-dimethylcyclobutane-1-carboxylic acid] | < 10 | < 10 | 1 to 50 | 
4 | C[C@H](O)[C@H](CN[C@]12CC[C@@H](C3(C)CC3)[C@@H]1[C@H]1CC[C@@H]3[C@@]4(C)CC[C@H](OC(=O)[C@H]5C[C@@H](C(=O)O)C5(C)C)C(C)(C)[C@@H]4CC[C@@]3(C)[C@]1(C)CC2)N1CCS(=O)(=O)CC1 [Example 13, (1R,3S)-3-((((1R,3aS,5aR,5bR,7aR,9S,11aR,11bR,13aR,13bR)-3a-(((2S,3S)-2-(1,1-dioxidothiomorpholino)-3-hydroxybutyl)amino)-5a,5b,8,8,11a-pentamethyl-1-(1-methylcyclopropyl)icosahydro-1H-cyclopenta[a]chrysen-9-yl)oxy)carbonyl)-2,2-dimethylcyclobutane-1-carboxylic acid] | < 10 | < 10 | 1 to 50 | 
5 | CC1([C@@H]2CC[C@]3(NC[C@H](CO[Si](C)(C)C(C)(C)C)N4CCS(=O)(=O)CC4)CC[C@]4(C)[C@H](CC[C@@H]5[C@@]6(C)CC[C@H](OC(=O)[C@H]7C[C@@H](C(=O)O)C7(C)C)C(C)(C)[C@@H]6CC[C@]54C)[C@@H]23)CC1 [Example 4, (1R,3S)-3-((((1R,3aS,5aR,5bR,7aR,9S,11aR,11bR,13aR,13bR)-3a-(((R)-3-((tert-butyldimethylsilyl)oxy)-2-(1,1-dioxidothiomorpholino)propyl)amino)-5a,5b, 8,8,11a-pentamethyl-1-(1-methylcyclopropyl)icosahydro-1H-cyclopenta[a]chrysen-9-yl)oxy)carbonyl)-2,2-dimethylcyclobutane-1-carboxylic acid] |  | > 50 | > 100 | 10 to 20
6 | CC(C)S(=O)(=O)N1CCN([C@H](CN[C@]23CC[C@@H](C4(C)CC4)[C@@H]2[C@H]2CC[C@@H]4[C@@]5(C)CC[C@H](OC(=O)[C@H]6C[C@@H](C(=O)O)C6(C)C)C(C)(C)[C@@H]5CC[C@@]4(C)[C@]2(C)CC3)[C@@H](C)O)CC1 [Example 14, (1R,3S)-3-((((1R,3aS,5aR,5bR,7aR,9S,11aR,11bR,13aR,13bR)-3a-(((2R,3R)-3-hydroxy-2-(4-(isopropylsulfonyl)piperazin-1-yl)butyl)amino)-5a,5b,8,8,11a-pentamethyl-1-(1-methylcyclopropyl)icosahydro-1H-cyclopenta[a]chrysen-9-yl)oxy)carbonyl)-2,2-dimethylcyclobutane-1-carboxylic acid] | < 10 | < 10 | 1 to 50 | 
7 | C=C(C)[C@@H]1CC[C@]2(NC[C@H]([C@@H](C)OC(=O)COCCOC)N3CCS(=O)(=O)CC3)CC[C@]3(C)[C@H](CC[C@@H]4[C@@]5(C)CC[C@H](OC(=O)[C@H]6C[C@@H](C(=O)O)C6(C)C)C(C)(C)[C@@H]5CC[C@]43C)[C@@H]12 [Example 19, (1R,3S)-3-((((1R,3aS,5aR,5bR,7aR,9S,11aR,11bR,13aR,13bR)-3a-(((2R,3R)-2-(1,1-dioxidothiomorpholino)-3-(2-(2-methoxyethoxy)acetoxy)butyl)amino)-5a,5b,8,8,11a-pentamethyl-1-(prop-1-en-2-yl)icosahydro-1H-cyclopentachrysen-9-yl)oxy)carbonyl)-2,2-dimethylcyclobutane-1-carboxylic acid] | < 10 | < 10 | 1 to 50 | 
8 | CC1([C@@H]2CC[C@]3(NC[C@H](CO)N4CCS(=O)(=O)CC4)CC[C@]4(C)[C@H](CC[C@@H]5[C@@]6(C)CC[C@H](OC(=O)[C@H]7C[C@@H](C(=O)O)C7(C)C)C(C)(C)[C@@H]6CC[C@]54C)[C@@H]23)CC1 [Example 5, (1R,3S)-3-((((1R,3aS,5aR,5bR,7aR,9S,11aR,11bR,13aR,13bR)-3a-(((R)-2-(1,1-dioxidothiomorpholino)-3-hydroxypropyl)amino)-5a,5b,8,8,11a-pentamethyl-1-(1-methylcyclopropyl)icosahydro-1H-cyclopenta[a]chrysen-9-yl)oxy)carbonyl)-2,2-dimethylcyclobutane-1-carboxylic acid] | < 10 | < 10 | 1 to 50 | 
9 | CC1([C@@H]2CC[C@]3(NC[C@@H](CF)N4CCS(=O)(=O)CC4)CC[C@]4(C)[C@H](CC[C@@H]5[C@@]6(C)CC[C@H](OC(=O)[C@H]7C[C@@H](C(=O)O)C7(C)C)C(C)(C)[C@@H]6CC[C@]54C)[C@@H]23)CC1 [Example 9, (1R,3S)-3-((((1R,3aS,5aR,5bR,7aR,9S,11aR,11bR,13aR,13bR)-3a-(((S)-2-(1,1-dioxidothiomorpholino)-3-fluoropropyl)amino)-5a,5b,8,8,11a-pentamethyl-1-(1-methylcyclopropyl)icosahydro-1H-cyclopentachrysen-9-yl)oxy)carbonyl)-2,2-dimethyl cyclobutane-1-carboxylic acid] | < 10 | 10 to 50 | 50 to 100 | 

From US12275712B2, “Triterpene derivatives as HIV inhibitors” (HETERO LABS LIMITED, priority 2019, dated 2025)
